According to patent US20210353611A1, “METHODS OF TREATING AMYOTROPHIC LATERAL SCLEROSIS” (Yeda Research and Development Co. Ltd., priority 2018, published 2021):
Structures can show the parent of a compound that is named as a salt.

Experiments:
[1] = NAM levels in CSF and sera of mice (targeted metabolomics); conditions: NAM 49.28 mg/kg/week s.c. osmotic pumps; SOD1-Tg mice vs water-treated controls
Experimental: Mice were anesthetized by i.p. injection of ketamine (100 mg/kg) and xylazine (10 mg/kg). The skin of the neck was shaved, and the mouse was placed prone on the stereotaxic instrument. The head was secured with the head adaptors. […] Under the dissection microscope, the subcutaneous tissue and muscles (m. biventer cervicis and m. rectus capitis dorsalis major) were separated by blunt dissection with forceps. A pair of micro-retractors is used to hold the muscles apart. The dura mater was blotted dry with sterile cotton swab. CSF was collected using a capillary tube to penetrate into the cisterna magna through the dura mater, lateral to the arteria dorsalis spinalis, immediately frozen in liquid nitrogen and stored at −80° C.
The samples (in 50% Methanol) were dried in a speed vac to blow off the methanol before drying to completion in a lyophilizer. All samples were re-dissolved in 100 μl of 0.1% formic acid.
Liquid Chromatography: Liquid chromatography was performed on a Waters Acquity UPLC system. […] Mobile phase consisted of (A) water and (B) acetonitrile each containing 0.1% formic acid. […]
Mass Spectrometry: LC-MS/MS analysis was performed on a Waters Xevo triple quadrupole equipped with a Zspray ESI source. […] TargetLynx (Waters) was used for Qualitative and Quantitative analysis.

SOD1-Tg mice [2] = experiment: Motor function tests (rotarod, hanging-wire grip test, neurological scoring) in ALS mouse model; assay type: in vivo; conditions: subcutaneously implanted mini osmotic pumps, continuous administration; vs vehicle-treated SOD1-Tg mice
From the text: G93A mSOD1-Tg mice on a C57BL/6 background were used. In all experiments, age- and gender-matched mice were used and WT littermates as controls. Mice were 40 days of age at the beginning of experiments. All mice were kept at a strict 24 hr reverse light-dark cycle, with lights being turned on from 10 pm to 10 am. Tryptophan-deficient diet (A10033Yi, Research diets, NJ, USA) was applied from the age of 40 days until the experimental end-point. For antibiotic treatment, mice were given a combination of vancomycin (0.5 g/l), ampicillin (1 g/l), kanamycin (1 g/l), and metronidazole (1 g/l) in their drinking water from the age of 40 days as previously described (Levy et al., 2015). […]
Vehicle control pumps contained equivalent volume of Ultra-pure water. […] The cut was then closed with sterile surgical clips and the animals were carefully monitored for any signs of stress, bleeding, pain, or abnormal behavior. […]
Rotarod: To assess motor coordination and balance, each mouse was tested with a rotarod device (Panlab Le8500 Harvard Apparatus, Spain), in acceleration speed mode (increasing from 4 rpm to 40 rpm during 10 min), with a maximum test time of 5 min. […] Each mouse was recorded three times at the ages of 60, 80, 100, 120 and 140 days. The apparatus automatically recorded the elapsed time when the mouse fell from the spindle. […]

SOD1-Tg mice [3] = experiment: Survival of SOD1-Tg mice; assay type: in vivo, mouse; conditions: NAM s.c. osmotic pumps vs vehicle; p=0.1757, Log-rank test
Experimental: From the age of 130 days, mice were monitored daily. The endpoint was defined by reaching neurological score of 4 and/or more than 15% reduction in body weight. The probability of survival was calculated using the Kaplan-Meier method, and statistical analysis was performed using a log-rank test.

Row | SMILES | NAM levels in sera [1] | ALS symptoms / behavioral and neurological motor tests (SOD1-Tg mice [2]) | Survival (SOD1-Tg mice [3])
1 | NC(=O)c1cccnc1 [NAM, Nicotinamide] | significantly increased | performed significantly better | non-significantly trend to improve survival
2 | O=S(=O)(O)Oc1ccccc1 [Phenol sulfate] | – | did not affect ALS symptoms | –
